Measurements taken from PubChem BioAssay AID192 (DTP/NCI, 2004).
Toxic doses and inconclusive results are not listed. How the source made its calls: active means survival T/C of 150% or more; inactive means T/C below 125% in these data.

Test system: BDF1 mice, B16 melanoma ip, median survival T/C
Assay: NCI In Vivo Anticancer Drug Screen. Data for tumor model B16 Melanoma (intraperitoneal) in B6D2F1 (BDF1) mice
Conditions: endpoint: median survival time, schedule: Q01DX009 (ip), higher = longer survival
In short: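 Antitumor activity is assessed in mice bearing a transplanted tumor, with survival or tumor size compared against vehicle-dosed controls and expressed as T/C.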

Measured: T/C

Cc1cc2ncn(CO)c2cc1C
inactive: dose: 100.0 mg/kg/injection, vehicle: saline with Tween-80 102 % of control | dose: 200.0 mg/kg/injection, vehicle: saline with Tween-80 97 % of control | dose: 400.0 mg/kg/injection, vehicle: saline with Tween-80 97 % of control

CCOC(=O)C(C(=O)OCC)=C(C)C
inactive: dose: 25.0 mg/kg/injection, vehicle: saline 123 % of control | dose: 50.0 mg/kg/injection, vehicle: saline 113 % of control | dose: 100.0 mg/kg/injection, vehicle: saline 110 % of control | dose: 200.0 mg/kg/injection, vehicle: saline 94 % of control

Nc1ncnc2c1ccn2C1OC(CO)C(O)C1O (centres undefined)
inactive: dose: 0.32 mg/kg/injection, vehicle: saline 107 % of control | dose: 0.5 mg/kg/injection, vehicle: Klucel (hydroxypropylcellulose) (HPC) 91 % of control | dose: 0.63 mg/kg/injection, vehicle: saline 120 % of control | dose: 1.0 mg/kg/injection, vehicle: Klucel (hydroxypropylcellulose) (HPC) 99 % of control | dose: 2.0 mg/kg/injection, vehicle: Klucel (hydroxypropylcellulose) (HPC) 90 % of control

CC(=O)C(Cl)C(=O)c1c(C)[nH]n(-c2ccccc2)c1=O (centres undefined)
inactive: dose: 25.0 mg/kg/injection, vehicle: Klucel (hydroxypropylcellulose) (HPC) 108 % of control | dose: 50.0 mg/kg/injection, vehicle: Klucel (hydroxypropylcellulose) (HPC) 98 % of control
